Test results from ChEMBL document CHEMBL3885861, “Open TG-GATES”.

Species on record: Rattus norvegicus
Assay: Open TG-GATES - Regimen: Daily Repeat
Type: toxicity, organism-based, Sprague-Dawley
Parameters: regimen Daily Repeat, gender Male, age 6 weeks
Details: in vivo, po, 0 mg/kg, route gavage, dose level Control; for KIDNEY_L / KIDNEY_R / KIDNEY_TOTAL: tissue Kidney; for ALT / AST / CRE / DBIL / GLC / IP / K / LDH / PL / RALB / TBIL / TC / TG / TP / gamma-GTP: tissue Plasma

Question: CC(C)OC(=O)C(C)(C)Oc1ccc(C(=O)c2ccc(Cl)cc2)cc1 [FENOFIBRATE] was tested. Which TERMINAL_BW (72 h, time 3 day) did it give?
Answer: 218.5 g

Question: What about the Bas (72 h, tissue Blood, time 3 day) of the same molecule?
Answer: 0.2%

Question: And the Eos (72 h, tissue Blood, time 3 day)?
Answer: 1.2%

Question: What about the Fbg (72 h, tissue Blood, time 3 day) of the same molecule?
Answer: 275 mg/dL

Question: And the Ht (72 h, tissue Blood, time 3 day)?
Answer: 39.9%

Question: And the MCHC (72 h, tissue Blood, time 3 day)?
Answer: 33%

Question: What about the Mono (72 h, tissue Blood, time 3 day) of the same molecule?
Answer: 3.2%

Question: And the Plat (72 h, tissue Blood, time 3 day)?
Answer: 108.4 x10_4/uL

Question: What about the RBC (72 h, tissue Blood, time 3 day) of the same molecule?
Answer: 625.4 x10_4/ul

Question: And the Ret (72 h, tissue Blood, time 3 day)?
Answer: 7.7%

Question: And the WBC (72 h, tissue Blood, time 3 day)?
Answer: 80.3 x10_2/uL

Question: And the KIDNEY_L (72 h, time 3 day)?
Answer: 1 g

Question: And the KIDNEY_R (72 h, time 3 day)?
Answer: 0.9 g

Question: And the KIDNEY_TOTAL (72 h, time 3 day)?
Answer: 1.9 g

Question: And the ALT (72 h, time 3 day)?
Answer: 44.4 IU/L

Question: And the AST (72 h, time 3 day)?
Answer: 69 IU/L

Question: What about the CRE (72 h, time 3 day) of the same molecule?
Answer: 0.2 mg/dL

Question: And the DBIL (72 h, time 3 day)?
Answer: 0.014 mg/dL

Question: And the GLC (72 h, time 3 day)?
Answer: 180.4 mg/dL

Question: And the IP (72 h, time 3 day)?
Answer: 8.3 mg/dL

Question: And the K (72 h, time 3 day)?
Answer: 4.3 meq/L

Question: What about the LDH (72 h, time 3 day) of the same molecule?
Answer: 75.2 IU/L

Question: What about the PL (72 h, time 3 day) of the same molecule?
Answer: 150.2 mg/dL

Question: What about the RALB (72 h, time 3 day) of the same molecule?
Answer: 2.6 g/dL

Question: What about the TBIL (72 h, time 3 day) of the same molecule?
Answer: 0.042 mg/dL

Question: What about the TC (72 h, time 3 day) of the same molecule?
Answer: 76.8 mg/dL

Question: And the TG (72 h, time 3 day)?
Answer: 86 mg/dL

Question: And the TP (72 h, time 3 day)?
Answer: 5.6 g/dL

Question: What about the gamma-GTP (72 h, time 3 day) of the same molecule?
Answer: 1.2 IU/L

Question: What about the TERMINAL_BW ([…], time 7 day) of the same molecule?
Answer: 254.4 g

Question: And the TERMINAL_BW ([…], time 14 day)?
Answer: 310.8 g

Question: What about the TERMINAL_BW ([…], time 28 day) of the same molecule?
Answer: 390.8 g

Question: What about the Bas ([…], tissue Blood, time 7 day) of the same molecule?
Answer: 0%

Question: What about the Eos ([…], tissue Blood, time 7 day) of the same molecule?
Answer: 1%

Question: What about the Fbg ([…], tissue Blood, time 7 day) of the same molecule?
Answer: 310.4 mg/dL

Question: And the Ht ([…], tissue Blood, time 7 day)?
Answer: 41.5%

Question: What about the MCHC ([…], tissue Blood, time 7 day) of the same molecule?
Answer: 32.7%

Question: And the Mono ([…], tissue Blood, time 7 day)?
Answer: 2.8%

Question: And the Plat ([…], tissue Blood, time 7 day)?
Answer: 113.6 x10_4/uL

Question: And the RBC ([…], tissue Blood, time 7 day)?
Answer: 650 x10_4/ul

Question: What about the Ret ([…], tissue Blood, time 7 day) of the same molecule?
Answer: 6.1%

Question: What about the WBC ([…], tissue Blood, time 7 day) of the same molecule?
Answer: 94.9 x10_2/uL

Question: What about the Bas ([…], tissue Blood, time 14 day) of the same molecule?
Answer: 0%

Question: What about the Eos ([…], tissue Blood, time 14 day) of the same molecule?
Answer: 1%

Question: And the Fbg ([…], tissue Blood, time 14 day)?
Answer: 309.8 mg/dL

Question: What about the Ht ([…], tissue Blood, time 14 day) of the same molecule?
Answer: 43.2%

Question: What about the MCHC ([…], tissue Blood, time 14 day) of the same molecule?
Answer: 33.2%

Question: And the Mono ([…], tissue Blood, time 14 day)?
Answer: 2.2%

Question: What about the Plat ([…], tissue Blood, time 14 day) of the same molecule?
Answer: 111 x10_4/uL

Question: What about the RBC ([…], tissue Blood, time 14 day) of the same molecule?
Answer: 692.6 x10_4/ul

Question: And the Ret ([…], tissue Blood, time 14 day)?
Answer: 4.5%

Question: What about the WBC ([…], tissue Blood, time 14 day) of the same molecule?
Answer: 81.5 x10_2/uL

Question: And the Bas ([…], tissue Blood, time 28 day)?
Answer: 0.4%

Question: What about the Eos ([…], tissue Blood, time 28 day) of the same molecule?
Answer: 1.2%

Question: What about the Fbg ([…], tissue Blood, time 28 day) of the same molecule?
Answer: 270.6 mg/dL

Question: What about the Ht ([…], tissue Blood, time 28 day) of the same molecule?
Answer: 45.9%

Question: What about the MCHC ([…], tissue Blood, time 28 day) of the same molecule?
Answer: 33.9%

Question: And the MCV ([…], tissue Blood, time 28 day)?
Answer: 59.2 fL

Question: What about the Mono ([…], tissue Blood, time 28 day) of the same molecule?
Answer: 2.2%

Question: And the Plat ([…], tissue Blood, time 28 day)?
Answer: 101.9 x10_4/uL

Question: And the RBC ([…], tissue Blood, time 28 day)?
Answer: 774.4 x10_4/ul

Question: And the Ret ([…], tissue Blood, time 28 day)?
Answer: 2.5%

Question: What about the WBC ([…], tissue Blood, time 28 day) of the same molecule?
Answer: 107.1 x10_2/uL

Question: What about the KIDNEY_L ([…], time 7 day) of the same molecule?
Answer: 1.1 g

Question: What about the KIDNEY_R ([…], time 7 day) of the same molecule?
Answer: 1.1 g

Question: What about the KIDNEY_TOTAL ([…], time 7 day) of the same molecule?
Answer: 2.1 g

Question: What about the KIDNEY_L ([…], time 14 day) of the same molecule?
Answer: 1.2 g

Question: And the KIDNEY_R ([…], time 14 day)?
Answer: 1.2 g

Question: And the KIDNEY_TOTAL ([…], time 14 day)?
Answer: 2.4 g

Question: What about the KIDNEY_L ([…], time 28 day) of the same molecule?
Answer: 1.3 g

Question: And the KIDNEY_R ([…], time 28 day)?
Answer: 1.3 g

Question: And the KIDNEY_TOTAL ([…], time 28 day)?
Answer: 2.5 g

Question: And the ALT ([…], time 7 day)?
Answer: 47.8 IU/L

Question: What about the AST ([…], time 7 day) of the same molecule?
Answer: 72.2 IU/L

Question: What about the CRE ([…], time 7 day) of the same molecule?
Answer: 0.2 mg/dL

Question: What about the DBIL ([…], time 7 day) of the same molecule?
Answer: 0.012 mg/dL

Question: And the GLC ([…], time 7 day)?
Answer: 187.8 mg/dL

Question: What about the IP ([…], time 7 day) of the same molecule?
Answer: 7.9 mg/dL

Question: And the K ([…], time 7 day)?
Answer: 4.3 meq/L

Question: What about the LDH ([…], time 7 day) of the same molecule?
Answer: 89.6 IU/L

Question: And the PL ([…], time 7 day)?
Answer: 147.8 mg/dL

Question: And the RALB ([…], time 7 day)?
Answer: 2.7 g/dL

Question: What about the TBIL ([…], time 7 day) of the same molecule?
Answer: 0.036 mg/dL

Question: And the TC ([…], time 7 day)?
Answer: 72.2 mg/dL

Question: What about the TG ([…], time 7 day) of the same molecule?
Answer: 122.6 mg/dL

Question: And the TP ([…], time 7 day)?
Answer: 5.8 g/dL

Question: What about the gamma-GTP ([…], time 7 day) of the same molecule?
Answer: 1 IU/L

Question: And the ALT ([…], time 14 day)?
Answer: 40.8 IU/L

Question: What about the AST ([…], time 14 day) of the same molecule?
Answer: 65.8 IU/L

Question: And the CRE ([…], time 14 day)?
Answer: 0.2 mg/dL

Question: What about the DBIL ([…], time 14 day) of the same molecule?
Answer: 0.014 mg/dL

Question: And the GLC ([…], time 14 day)?
Answer: 188.2 mg/dL

Question: What about the IP ([…], time 14 day) of the same molecule?
Answer: 7.5 mg/dL

Question: What about the K ([…], time 14 day) of the same molecule?
Answer: 4.3 meq/L

Question: What about the LDH ([…], time 14 day) of the same molecule?
Answer: 106.6 IU/L

Question: And the PL ([…], time 14 day)?
Answer: 144.8 mg/dL

Question: What about the RALB ([…], time 14 day) of the same molecule?
Answer: 2.7 g/dL

Question: What about the TBIL ([…], time 14 day) of the same molecule?
Answer: 0.038 mg/dL

Question: And the TC ([…], time 14 day)?
Answer: 64.6 mg/dL

Question: What about the TG ([…], time 14 day) of the same molecule?
Answer: 188 mg/dL

Question: And the TP ([…], time 14 day)?
Answer: 5.9 g/dL

Question: What about the gamma-GTP ([…], time 14 day) of the same molecule?
Answer: 1 IU/L

Question: What about the ALT ([…], time 28 day) of the same molecule?
Answer: 40.2 IU/L

Question: What about the AST ([…], time 28 day) of the same molecule?
Answer: 65.8 IU/L

Question: And the CRE ([…], time 28 day)?
Answer: 0.2 mg/dL

Question: What about the DBIL ([…], time 28 day) of the same molecule?
Answer: 0.012 mg/dL

Question: And the GLC ([…], time 28 day)?
Answer: 186 mg/dL

Question: What about the IP ([…], time 28 day) of the same molecule?
Answer: 7.1 mg/dL

Question: And the K ([…], time 28 day)?
Answer: 3.6 meq/L

Question: What about the LDH ([…], time 28 day) of the same molecule?
Answer: 90 IU/L

Question: What about the PL ([…], time 28 day) of the same molecule?
Answer: 142 mg/dL

Question: And the RALB ([…], time 28 day)?
Answer: 2.8 g/dL

Question: What about the TBIL ([…], time 28 day) of the same molecule?
Answer: 0.042 mg/dL

Question: What about the TC ([…], time 28 day) of the same molecule?
Answer: 71.4 mg/dL

Question: And the TG ([…], time 28 day)?
Answer: 117.8 mg/dL

Question: What about the TP ([…], time 28 day) of the same molecule?
Answer: 6.3 g/dL

Question: And the gamma-GTP ([…], time 28 day)?
Answer: 1.2 IU/L
